We go through eleven molecules from US20070072874A1, “Aminoheteroaryl compounds as protein kinase inhibitors” (Sugen, Inc., priority 2003, published 2007).

T1 sequence (P08581 1078-1345 limits assumed): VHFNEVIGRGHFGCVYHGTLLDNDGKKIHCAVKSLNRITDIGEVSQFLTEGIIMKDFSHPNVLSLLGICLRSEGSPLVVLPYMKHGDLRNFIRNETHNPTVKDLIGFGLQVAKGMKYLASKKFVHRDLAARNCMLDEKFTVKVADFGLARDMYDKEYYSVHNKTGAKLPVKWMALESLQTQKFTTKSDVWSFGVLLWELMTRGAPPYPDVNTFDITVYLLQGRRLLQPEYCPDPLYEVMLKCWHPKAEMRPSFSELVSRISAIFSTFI

The first assay has as its target T1, GST fusion protein containing the Met kinase domain (Homo sapiens, UniProt P08581).
T1 construct: Purified GST fusion protein containing the Met kinase domain, SUGEN, Inc
The assay is described as follows: MET transphosphorylation assay (ELISA, poly(glu-tyr) substrate). In kind it is biochemical.
Settings: not given
(In an ELISA, binding on a coated surface is turned into a signal by an enzyme label.)
Consider `CC(Oc1cc(-c2ccc(C(=O)N3CCC(N4CCCC4)CC3)cc2)cnc1N)c1c(F)ccc(F)c1Cl` (centres unmarked) [Example I-339, (4-{6-Amino-5-[1-(2-chloro-3,6-difluoro-phenyl)-ethoxy]-pyridin-3-yl}-phenyl)-(4-pyrrolidin-1-yl-piperidin-1-yl)-methanone], for which the IC50 (usually the concentration needed to halve the response being measured) came out at 62 nM.

As for `Nc1ncc(-c2cccnc2)cc1OCc1ccccc1` [Example I-489, 5-Benzyloxy-[3,3′]bipyridinyl-6-ylamine], the IC50 is more than 20000 nM. Take `CC(Oc1cc(-c2ccc(C(=O)N3CCN(C)CC3)cn2)cnc1N)c1c(F)ccc(F)c1Cl` (centres unmarked) [Example I-517, {6′-Amino-5′-[1-(2-chloro-3,6-difluoro-phenyl)-ethoxy]-[2,3′]bipyridinyl-5-yl)-(4-methyl-piperazin-1-yl)-methanone]: it took 131 nM to reach half-maximal inhibition (IC50). `Nc1ncc(-c2cccnc2)cc1OCc1c(F)ccc(F)c1Cl` [Example I-501, 5-(2-Chloro-3,6-difluoro-benzyloxy)-[3,3′]bipyridinyl-6-ylamine]: the 50% inhibitory concentration (IC50) was 282 nM. This IC50 is about 2.2-fold higher than that of the molecule before. As for `CN(C)CCS(=O)(=O)Nc1cccc(-c2cnc(N)c(OCc3c(F)ccc(F)c3Cl)c2)c1` [Example I-259, 2-Dimethylamino-ethanesulfonic acid {3-[6-amino-5-(2-chloro-3,6-difluoro-benzyloxy)-pyridin-3-yl]-phenyl}-amide], the IC50 was found to be 1500 nM.

The molecule `CN(C)[C@H]1CCN(C(=O)c2ccc(-c3cnc(N)c(OCc4ccc(F)cc4Cl)c3)cc2)C1` [Example I-205] gave an IC50 of 8100 nM. This IC50 lies about 5.4-fold higher than the previous one. The same measure, in the same setting: the figure for `CC(Oc1cc(-c2ccc(C(=O)N3CCC(N)CC3)cc2)cnc1N)c1c(Cl)ccc(F)c1Cl` (centres unmarked) [Example I-305, (4-{6-Amino-5-[1-(2,6-dichloro-3-fluoro-phenyl)-ethoxy]-pyridin-3-yl}-phenyl)-(4-amino-pipendin-1-yl)-methanone] is 18 nM; for `CC(Oc1cc(-c2ccc(OCCN3CCCC3)cc2)cnc1N)c1c(Cl)ccc(F)c1Cl` (centres unmarked) [Example I-355, 3-[1-(2,6-Dichlaro-3-fluoro-phenyl)-ethoxy]-5-[4-(2-pyrrolidin-1-yl-ethoxy)-phenyl]-pyridin-2-ylamine] it is 680 nM; for `Nc1ncc(-c2ccc(NS(=O)(=O)CCNC3CC3)cc2)nc1OCc1c(F)ccc(F)c1Cl` [II-20, 2-Cyclopropylamino-ethanesulfonic acid {4-[5-amino-6-(2-chloro-3,6-difluoro-benzyloxy)-pyrazin-2-yl]-phenyl}-amide] it is 1200 nM.

`CC(Oc1cc(-c2ccc(OCCC3CCCN3C)cc2)cnc1N)c1c(Cl)ccc(F)c1Cl` (centres unmarked) [Example I-356, 3-[1-(2,6-Dichloro-3-fluoro-phenyl)-ethoxy]-5-{4-(2-[1-methyl-pyrrolidin-2-yl)-ethoxy]-phenyl)-pyridin-2-ylamine] had a concentration for half-maximal inhibition (IC50) of 790 nM.

Still in this assay, the particulars now being: Table 1; several values in one cell are separated by /.
For the molecule `Nc1ncc(Br)cc1OCc1c(F)cccc1Cl` [I(e), 5-Bromo-3-(2-chloro-6-fluoro-benzyloxy)-pyridin-2-ylamine], the half-inhibitory concentration (IC50) is more than 20000 nM.
